What was measured:
IbENOD93 gene = test: Regulation of IbENOD93 expression by plant hormone treatment (real-time PCR); assay type: in vivo, sweet potato; conditions: 3 hours, fibrous roots of single-leaf plantlets, 25° C., dark
Experimental: To determine the transcriptional regulation of IbENOD93 gene by treatment with auxin (Indole-3-acetic acid; IAA), jasmonic acid (JA), and […] (6-benzylaminopurine; BA), real-time PCR (RT-PCR) was performed using IbENOD93-specific primers (IbENOD93(360)F 5′-[…]-3′ (SEQ ID. NO.: 9) and IbENOD93(512)R 5′-[…]-3′ (SEQ ID. NO.: 10)).
The roots of sweet potato were treated with hormones according to the following method. Sweet potato plantlets bearing a single leaf and petiole were collected from sweet potato plants and incubated in flasks filled with water for 3 weeks. After fibrous roots had developed from the distal end of the petiole, the single-leaf plantlets were incubated in various concentrations of IAA, JA, and BA solutions (0, 50, 100, 200, 500, 1000 μM) at 25° C. in the dark for 3 hours. After the hormone treatment, total RNA was extracted from the fibrous roots using the RNeasy Plant Mini Kit™ (Qiagen) and used for RT-PCR.
Total RNA (5 μg) was used for first-strand cDNA synthesis using the SuperScript III first-strand cDNA synthesis kit (Invitrogen). The resulting cDNA solution was then diluted with 30 μl of TE and used for PCR. Among a total of 20 μl, 1 μl of the synthesized cDNA was used for the RT-PCR, and KAPA SYBR FAST Master mix (KAPABIOSYSTEMS) was used for a final reaction volume of 16 μl. Real-time PCR analysis was performed using the LightCycler 480 quantification system (Roche Diagnostics) according to the manufacturer's instructions. Expression levels were normalized with β-tubulin expression amplified with 5′-[…]-3′ (SEQ ID. NO.: 11) and 5′-[…]-3′ (SEQ ID. NO.: 12) primers. Real-time PCR was performed starting with pre-denaturation at 95° C. for 10 minutes, followed by 45 cycles of denaturation at 95° C. for 10 seconds, annealing at 58° C. for 10 seconds, and extension at 72° C. for 20 seconds. Following the amplification phase, a melting curve analysis was conducted from 65° C. to 97° C. The second derivative maximum method in the LightCycler 480 quantification software (Roche Diagnostics) was used to evaluate the data.

[1] = system: MADS-box genes (SRD1, IbMADS1); conditions: upon IAA or JA treatment; Noh et al. 2010, Ku et al. 2008; cited from earlier work

Structure (SMILES)	transcript level of IbENOD93 (IbENOD93 gene; BA at 100 μM or higher)	transcript level of MADS-box genes (SRD1, IbMADS1) [1]	transcript level of IbENOD93 (IbENOD93 gene; 500 μM IAA)	transcript level of IbENOD93 (IbENOD93 gene; 200 μM JA)
c1ccc(CNc2ncnc3nc[nH]c23)cc1 [BA, 6-benzylaminopurine]	increased slightly	–	–	–
O=C(O)Cc1c[nH]c2ccccc12 [IAA, Indole-3-acetic acid]	–	increased sharply	increased sharply	–
CC/C=C\C[C@H]1C(=O)CC[C@@H]1CC(=O)O [JA, jasmonic acid]	–	increased sharply	–	increased sharply

— US9963712B2, “Gene IbENOD93 and transgenic plants using the same” (Korea University Research and Business Foundation, priority 2014, dated 2018)
